From ChEMBL document CHEMBL5653631, “A Potent and Selective ULK1 Inhibitor Suppresses Autophagy and Sensitizes Cancer Cells to Nutrient Stress” (iScience, 2018)

Legend:
[1] = target: Mitogen-activated protein kinase kinase kinase kinase 1 (Homo sapiens) (UniProt Q92918); experiment: Inhibition of human recombinant HPK1 at 15 nM in presence of ATP by radiometric assay relative to control
[2] = target: T1, Protein kinase C epsilon type (Homo sapiens) (UniProt Q02156); experiment: Inhibition of human recombinant PKCe at 15 nM in presence of ATP by radiometric assay relative to control
T1 sequence (whole entry): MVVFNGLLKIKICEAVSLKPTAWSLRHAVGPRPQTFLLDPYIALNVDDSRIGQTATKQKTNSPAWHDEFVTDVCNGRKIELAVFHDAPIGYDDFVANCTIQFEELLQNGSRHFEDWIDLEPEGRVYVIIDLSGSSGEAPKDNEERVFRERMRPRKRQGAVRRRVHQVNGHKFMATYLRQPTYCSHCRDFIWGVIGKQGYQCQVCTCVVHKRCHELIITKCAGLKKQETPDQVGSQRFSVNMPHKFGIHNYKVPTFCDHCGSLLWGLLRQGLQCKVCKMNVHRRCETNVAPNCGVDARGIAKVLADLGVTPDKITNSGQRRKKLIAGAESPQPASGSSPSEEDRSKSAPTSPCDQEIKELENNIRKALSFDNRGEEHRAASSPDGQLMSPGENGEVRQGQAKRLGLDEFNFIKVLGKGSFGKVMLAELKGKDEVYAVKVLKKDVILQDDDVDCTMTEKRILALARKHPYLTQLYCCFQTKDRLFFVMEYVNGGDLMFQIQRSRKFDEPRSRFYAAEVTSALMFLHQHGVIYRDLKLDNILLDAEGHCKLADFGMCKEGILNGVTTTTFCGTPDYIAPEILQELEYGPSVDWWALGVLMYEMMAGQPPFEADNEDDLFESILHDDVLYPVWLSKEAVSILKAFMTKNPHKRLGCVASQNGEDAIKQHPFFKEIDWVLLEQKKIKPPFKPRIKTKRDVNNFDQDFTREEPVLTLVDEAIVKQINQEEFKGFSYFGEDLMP

[3] = target: Casein kinase I isoform gamma-1 (Homo sapiens) (UniProt Q9HCP0); experiment: Inhibition of human recombinant CK1g1 at 15 nM related to control ULK1
Chain of Casein kinase I isoform gamma-1 (Homo sapiens) (Q9HCP0 whole entry, looked up, canonical isoform): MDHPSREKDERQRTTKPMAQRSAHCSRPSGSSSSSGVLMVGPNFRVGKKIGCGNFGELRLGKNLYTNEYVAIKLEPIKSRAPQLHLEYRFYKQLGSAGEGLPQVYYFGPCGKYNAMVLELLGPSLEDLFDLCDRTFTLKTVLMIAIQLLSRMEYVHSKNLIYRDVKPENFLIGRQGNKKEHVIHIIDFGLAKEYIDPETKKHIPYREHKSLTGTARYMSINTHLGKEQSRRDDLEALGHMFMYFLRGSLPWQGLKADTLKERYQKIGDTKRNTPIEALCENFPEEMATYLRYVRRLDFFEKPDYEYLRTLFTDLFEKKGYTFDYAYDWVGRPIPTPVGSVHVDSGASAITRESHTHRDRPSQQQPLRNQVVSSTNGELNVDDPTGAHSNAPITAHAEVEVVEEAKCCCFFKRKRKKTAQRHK

[4] = target: Tyrosine-protein kinase BTK (Homo sapiens) (UniProt Q06187); experiment: Inhibition of human recombinant BTK at 40 nM related to control ULK1
Chain of Tyrosine-protein kinase BTK (Homo sapiens) (Q06187 whole entry): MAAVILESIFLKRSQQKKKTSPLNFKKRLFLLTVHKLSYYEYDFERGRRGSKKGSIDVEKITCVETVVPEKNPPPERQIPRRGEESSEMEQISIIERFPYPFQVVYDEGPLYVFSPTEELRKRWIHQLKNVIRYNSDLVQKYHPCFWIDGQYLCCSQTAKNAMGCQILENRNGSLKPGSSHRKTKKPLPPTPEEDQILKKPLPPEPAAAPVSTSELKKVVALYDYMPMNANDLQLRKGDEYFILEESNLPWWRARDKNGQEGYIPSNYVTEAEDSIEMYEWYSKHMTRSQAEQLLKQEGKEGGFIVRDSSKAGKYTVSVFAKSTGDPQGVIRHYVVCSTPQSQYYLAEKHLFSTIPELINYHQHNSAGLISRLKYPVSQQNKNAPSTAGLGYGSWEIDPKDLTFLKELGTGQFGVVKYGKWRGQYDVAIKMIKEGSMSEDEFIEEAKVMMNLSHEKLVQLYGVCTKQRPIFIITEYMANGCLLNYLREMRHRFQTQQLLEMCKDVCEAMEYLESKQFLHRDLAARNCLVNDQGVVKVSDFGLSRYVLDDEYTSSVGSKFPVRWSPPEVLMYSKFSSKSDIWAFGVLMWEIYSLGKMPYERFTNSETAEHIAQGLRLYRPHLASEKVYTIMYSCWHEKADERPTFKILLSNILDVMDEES

[5] = target: T2, Ephrin type-A receptor 8 (Homo sapiens) (UniProt P29322); experiment: Inhibition of human recombinant EphA8 at 40 nM related to control ULK1
T2 sequence (whole entry): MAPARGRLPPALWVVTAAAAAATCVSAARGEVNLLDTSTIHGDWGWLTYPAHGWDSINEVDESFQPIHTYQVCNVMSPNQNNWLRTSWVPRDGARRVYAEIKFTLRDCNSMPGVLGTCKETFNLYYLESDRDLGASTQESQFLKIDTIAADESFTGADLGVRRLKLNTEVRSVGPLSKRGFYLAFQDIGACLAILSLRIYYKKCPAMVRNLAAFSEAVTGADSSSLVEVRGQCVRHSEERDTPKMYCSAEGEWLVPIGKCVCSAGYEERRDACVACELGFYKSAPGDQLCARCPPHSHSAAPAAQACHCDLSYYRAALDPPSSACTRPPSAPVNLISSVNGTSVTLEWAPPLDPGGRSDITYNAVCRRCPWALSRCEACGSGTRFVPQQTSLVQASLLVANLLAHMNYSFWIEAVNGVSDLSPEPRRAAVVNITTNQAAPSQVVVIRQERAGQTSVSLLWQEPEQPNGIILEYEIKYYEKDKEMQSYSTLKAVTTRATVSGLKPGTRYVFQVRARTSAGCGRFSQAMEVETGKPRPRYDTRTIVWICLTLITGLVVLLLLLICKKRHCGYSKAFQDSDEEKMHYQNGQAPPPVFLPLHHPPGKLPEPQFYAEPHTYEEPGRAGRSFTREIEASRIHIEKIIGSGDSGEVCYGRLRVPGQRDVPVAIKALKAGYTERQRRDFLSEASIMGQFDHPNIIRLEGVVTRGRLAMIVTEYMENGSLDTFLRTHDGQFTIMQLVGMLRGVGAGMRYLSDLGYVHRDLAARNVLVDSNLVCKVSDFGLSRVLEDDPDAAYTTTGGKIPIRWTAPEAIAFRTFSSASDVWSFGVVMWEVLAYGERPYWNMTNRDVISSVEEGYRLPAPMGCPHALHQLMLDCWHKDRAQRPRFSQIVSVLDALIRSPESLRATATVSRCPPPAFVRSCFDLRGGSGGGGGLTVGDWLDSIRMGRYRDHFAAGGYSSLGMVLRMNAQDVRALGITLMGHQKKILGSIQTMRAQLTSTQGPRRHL

[6] = target: T3, Serine/threonine-protein kinase TAO1 (Homo sapiens) (UniProt Q7L7X3); experiment: Inhibition of human recombinant TAO1 at 40 nM related to control ULK1
T3 sequence (whole entry): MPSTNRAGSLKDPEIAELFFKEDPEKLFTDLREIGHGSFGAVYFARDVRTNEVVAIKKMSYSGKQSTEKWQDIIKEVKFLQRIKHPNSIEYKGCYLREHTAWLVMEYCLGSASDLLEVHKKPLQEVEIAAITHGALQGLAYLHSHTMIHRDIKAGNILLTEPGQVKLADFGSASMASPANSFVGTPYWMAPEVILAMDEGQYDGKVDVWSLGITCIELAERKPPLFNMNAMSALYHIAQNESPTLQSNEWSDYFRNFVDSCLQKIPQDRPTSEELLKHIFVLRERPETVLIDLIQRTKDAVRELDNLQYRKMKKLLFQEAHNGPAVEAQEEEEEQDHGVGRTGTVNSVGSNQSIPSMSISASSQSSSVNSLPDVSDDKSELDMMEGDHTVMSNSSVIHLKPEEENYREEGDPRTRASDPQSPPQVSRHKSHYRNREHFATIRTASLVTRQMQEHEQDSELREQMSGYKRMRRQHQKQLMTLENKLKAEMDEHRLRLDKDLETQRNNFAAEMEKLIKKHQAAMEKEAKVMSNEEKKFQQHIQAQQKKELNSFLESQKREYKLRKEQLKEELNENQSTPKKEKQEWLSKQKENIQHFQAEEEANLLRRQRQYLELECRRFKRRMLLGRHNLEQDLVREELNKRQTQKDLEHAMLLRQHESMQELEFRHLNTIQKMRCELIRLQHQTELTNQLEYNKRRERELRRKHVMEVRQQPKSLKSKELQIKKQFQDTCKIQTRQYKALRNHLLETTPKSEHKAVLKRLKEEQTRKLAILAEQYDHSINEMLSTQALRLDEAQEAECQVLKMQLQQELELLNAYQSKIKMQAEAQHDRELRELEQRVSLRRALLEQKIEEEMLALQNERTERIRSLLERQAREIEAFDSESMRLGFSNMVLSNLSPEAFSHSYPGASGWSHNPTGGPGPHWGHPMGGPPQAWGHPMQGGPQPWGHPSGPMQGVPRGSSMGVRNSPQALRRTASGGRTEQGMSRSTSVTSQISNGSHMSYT

Chain of Mitogen-activated protein kinase kinase kinase kinase 1 (Homo sapiens) (Q92918 whole entry, looked up): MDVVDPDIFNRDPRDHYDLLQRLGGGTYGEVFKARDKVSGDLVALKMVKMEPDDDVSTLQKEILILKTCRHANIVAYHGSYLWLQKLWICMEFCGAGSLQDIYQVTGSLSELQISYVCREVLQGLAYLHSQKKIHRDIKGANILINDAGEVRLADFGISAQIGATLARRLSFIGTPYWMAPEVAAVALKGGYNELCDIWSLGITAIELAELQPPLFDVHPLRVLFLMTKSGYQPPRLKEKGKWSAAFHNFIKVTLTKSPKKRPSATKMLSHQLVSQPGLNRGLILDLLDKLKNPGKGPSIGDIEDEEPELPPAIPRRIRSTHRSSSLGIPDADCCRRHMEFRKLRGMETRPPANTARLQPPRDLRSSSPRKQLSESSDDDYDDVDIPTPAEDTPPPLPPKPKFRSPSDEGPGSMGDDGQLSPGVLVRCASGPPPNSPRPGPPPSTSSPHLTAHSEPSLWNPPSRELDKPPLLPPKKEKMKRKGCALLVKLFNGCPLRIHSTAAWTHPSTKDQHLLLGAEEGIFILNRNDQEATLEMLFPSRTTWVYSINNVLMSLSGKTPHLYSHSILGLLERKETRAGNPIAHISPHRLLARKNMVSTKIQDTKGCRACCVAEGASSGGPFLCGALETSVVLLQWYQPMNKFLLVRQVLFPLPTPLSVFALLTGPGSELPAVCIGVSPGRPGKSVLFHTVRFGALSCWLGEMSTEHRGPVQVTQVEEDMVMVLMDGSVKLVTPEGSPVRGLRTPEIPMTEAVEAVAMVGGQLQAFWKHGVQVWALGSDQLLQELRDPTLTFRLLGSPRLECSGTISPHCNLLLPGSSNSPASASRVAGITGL

| Structure (SMILES) | inhibition [1] [%] | inhibition [2] [%] | fold change (FC) [3] | fold change (FC) [4] | fold change (FC) [5] | fold change (FC) [6] |
| --- | --- | --- | --- | --- | --- | --- |
| CC(C)[C@H](NC(=O)c1cc(-c2cnn3cc(-c4ccc(OCCN5CCCCC5)cc4)cnc23)cs1)C(F)(F)F | 0 | 0 | 0 |  |  |  |
| O=C(N[C@@H](C1CC1)C(F)(F)F)c1cc(-c2cnn3cc(-c4ccc(F)cc4)cnc23)cs1 |  |  |  | 0 | 0 | 0 |
